Earlier results as cited in US8628797B2, “Oral extended-release composition” (Andrx Pharmaceuticals, LLC, priority 2003, dated 2014).

Settings: 1 part drug in the stated parts of water

| Molecule | solubility |
| --- | --- |
| CC[C@H]1OC(=O)[C@H](C)[C@@H](O[C@H]2C[C@@](C)(OC)[C@@H](O)[C@H](C)O2)[C@H](C)[C@@H](O[C@@H]2O[C@H](C)C[C@H](N(C)C)[C@H]2O)[C@](C)(OC)C[C@@H](C)C(=O)[C@H](C)[C@@H](O)[C@]1(C)O [Clarithromycin, 6-O-methylerythromycin A] | ~1,000 parts of water |
| CC1Cc2ccccc2N1NC(=O)c1ccc(Cl)c(S(N)(=O)=O)c1 (stereo not shown) [indapamide] | more than 10,000 parts of water |

Settings: in vivo

| Molecule | absorption in the presence of food |
| --- | --- |
| COc1c2occc2cc2ccc(=O)oc12 [8-methoxsalen] | increased |

Same assay, conditions: in words; literature review

| Molecule | absorption in the presence of food |
| --- | --- |
| C=CCOc1ccc(CC(=O)O)cc1Cl [alclofenac] | delayed |
| O=c1oc2ccccc2c(O)c1Cc1c(O)c2ccccc2oc1=O [dicoumarol] | increased |
| spiramycin | unaffected |
| NS(=O)(=O)c1cc2c(cc1C(F)(F)F)NC(Cc1ccccc1)NS2(=O)=O (stereo not shown) [bendroflumethiazide] | unaffected |
| CCC(=O)O[C@H]1[C@H](O[C@@H]2[C@@H](C)[C@H](O[C@H]3C[C@@](C)(OC)[C@@H](O)[C@H](C)O3)[C@@H](C)C(=O)O[C@H](CC)[C@@](C)(O)[C@H](O)[C@@H](C)C(=O)[C@H](C)C[C@@]2(C)O)O[C@H](C)C[C@@H]1N(C)C [erythromycin estolate] | unaffected |
| CC(=O)Oc1ccccc1C(=O)O [aspirin] | delayed |
| N[C@@H](C(=O)N[C@@H]1C(=O)N2C(C(=O)O)=C(Cl)CS[C@H]12)c1ccccc1 [cefaclor] | delayed |
| CN/C(=N/CCSCc1nc[nH]c1C)NC#N [cimetidine] | delayed |
| O=C1CN(/N=C/c2ccc([N+](=O)[O-])o2)C(=O)N1 [nitrofurantoin] | increased |
| CC(C(=O)O)c1ccc(N2Cc3ccccc3C2=O)cc1 (stereo not shown) [indoprofen] | delayed |
